Test results reported in PMC7465886, “4-(N-Alkyl- and -Acyl-amino)-1,2,4-triazole-3-thione Analogs as Metallo-β-Lactamase Inhibitors: Impact of 4-Linker on Potency and Spectrum of Inhibition” (Biomolecules, 2020).
Read-outs that look alike come from different tables or passages of the source.

Key:
IMP-1 [1] = target: T1, IMP-1 (Serratia marcescens, UniProt P52699); experiment: MBL inhibition, reporter substrate method, IMP-1; type: biochemical
T1 construct: made in house; host or cells: E. coli BL21(DE3) derivative, pET-9a
T1 sequence (P52699 19-246 limits assumed): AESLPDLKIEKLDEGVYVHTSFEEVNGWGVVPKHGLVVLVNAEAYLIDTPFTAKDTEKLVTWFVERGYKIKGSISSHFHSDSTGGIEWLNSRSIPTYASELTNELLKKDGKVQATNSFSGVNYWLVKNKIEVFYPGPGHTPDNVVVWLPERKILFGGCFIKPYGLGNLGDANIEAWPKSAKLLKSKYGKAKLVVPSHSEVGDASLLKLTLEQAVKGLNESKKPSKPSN
Method: (§1) Compounds were prepared in DMSO at a final concentration of 50 mM prior to dilution in the assay buffer. The reaction rate was measured as the variation of absorbance observed upon substrate hydrolysis in a UV-Vis spectrophotometer or microplate reader at a wavelength of 300 nm (imipenem, meropenem), 260 nm (cefotaxime), or 482 nm (nitrocefin) and in the presence of a purified MBL enzyme (such as VIM-1, VIM-2, VIM-4, NDM-1, and IMP-1, at a final concentration ranging from 1 to 70 nM).
(§2) These enzymes were overproduced in derivatives of E. coli BL21(DE3) carrying a pET-9 a (IMP-1, VIM-1, VIM-2, and VIM-4) or pET-15 b (NDM-1) vector into which the metallo-β-lactamase-encoding open reading frame was cloned. Bacterial strains were grown in the auto-inducing medium, ZYP-5052, supplemented with 50 μg/mL kanamycin for 24 h at 37 °C [38]. IMP-1, VIM-1, VIM-2, and VIM-4 were purified by ion-exchange and gel filtration chromatography using an AKTA Purifier platform (GE Healthcare, Uppsala, Sweden) as previously described. NDM-1 (residues 37-270) was produced as an amino-terminal 6 xHis-tag fusion protein and was purified using affinity chromatography. After growth for 26 h at 25 °C, bacterial cells were harvested by centrifugation (10,000× g, 30 min, 4 °C), resuspended in 10 mM HEPES buffer (pH 7.5) containing 0.15 M NaCl (buffer A) in one-fifth of the original culture volume, and lysed by sonication. Cellular debris was removed by centrifugation (12,000× g, 40 min, 4 °C). The clarified sample was loaded on a HisTrap HP column (bed volume, 5 mL; GE Healthcare), followed by a wash step (25 mL) with buffer A containing 20 mM imidazole. Proteins were eluted using buffer A containing 350 mM imidazole. The resulting protein sample was desalted (HiPrep 26/10 Desalting column, GE Healthcare) using 20 mM triethanolamine (pH 7.2) supplemented with 50 μM ZnSO4 and concentrated using an Amicon Ultra-15 (MW cut-off, 10 kDa; Millipore, Burlington, MA, USA). The concentrated sample was loaded on a Superdex 75 prep grade column (XK16/100 column; bed volume, 140 mL; GE Healthcare) and the proteins eluted with buffer A containing 50 μM ZnSO4. The active fractions were pooled and stored at −20 °C. The purity of the protein preparations was estimated >95% by SDS-PAGE analysis. The authenticity of the enzyme preparations was confirmed by electron spray ionization mass spectrometry, as previously described.
(§3) The inhibition constants (Ki) were determined on the basis of a model of competitive inhibition by analyzing the dependence of the ratio v0/vi (v0, hydrolysis velocity in the absence of inhibitor; vi, hydrolysis velocity in the presence of inhibitor) as a function of [I] as already described. The slope of the plot of v0/vi vs. [I], which corresponds to Km^S/(Km^S + [S])Ki (where Km^S is the Km value of the reporter substrate and [S] its concentration in the reaction mixture) and allowed the calculation of the Ki value. Alternatively, a Dixon plot analysis was carried out by measuring the initial hydrolysis rates in the presence of variable concentrations of inhibitor and substrate. This allowed Ki values to be determined and supported the hypothesis that the various compounds behaved as competitive inhibitors of the various tested enzymes. The assays were performed in triplicate.

NDM-1 [2] = target: T2, NDM-1 (Klebsiella pneumoniae, UniProt C7C422); experiment: MBL inhibition, reporter substrate method, NDM-1; type: biochemical
T2 sequence (C7C422 37-270 limits assumed): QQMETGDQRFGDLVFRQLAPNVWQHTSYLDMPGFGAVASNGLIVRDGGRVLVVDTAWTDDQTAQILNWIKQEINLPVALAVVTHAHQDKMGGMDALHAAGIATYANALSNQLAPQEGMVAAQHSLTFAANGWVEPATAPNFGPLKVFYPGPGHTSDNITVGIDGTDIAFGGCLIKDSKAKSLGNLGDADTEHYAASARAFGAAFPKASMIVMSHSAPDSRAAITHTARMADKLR
Method: as §1, §2, §3

VIM-2 [3] = target: T3, VIM-2 (Escherichia coli, UniProt Q5U7L7); experiment: MBL inhibition, reporter substrate method, VIM-2; type: biochemical
T3 construct: made in house; host or cells: E. coli BL21(DE3) derivative, pET-9a
Method: as §1, §2, §3

VIM-2 [4] = target: T3, VIM-2; conditions: cited from earlier work; for Ki: Schiff base analogs, read-out: Ki Value VIM-2, hydrazone-like compound (converted)
IMP-1 [5] = target: T1, IMP-1; design: method as in PMID 32937203; conditions: cited from earlier work; for Inhibition of IMP-1 (dash in Ki column), corresponding hydrazone-like compound: in parentheses, 100 μM inhibitor; for Ki: value in parentheses, read-out: Ki Value IMP-1, corresponding hydrazone-like compound (converted)
NDM-1 [6] = target: T2, NDM-1; design: method as in PMID 32937203; conditions: cited from earlier work; for Inhibition of NDM-1 (dash in Ki column), corresponding hydrazone-like compound: in parentheses, 100 μM inhibitor; for Ki: Schiff base analogs, read-out: Ki Value NDM-1, hydrazone-like compound (converted)
[7] = read-out: Percentage of Inhibition at 100 μM Inhibitor, IMP-1 (dash)
[8] = read-out: Percentage of Inhibition at 100 μM Inhibitor, NDM-1 (dash)
[9] = read-out: Percentage of Inhibition at 100 μM Inhibitor, VIM-2 (dash)
[10] = read-out: Inhibition of IMP-1 (dash in Ki column)
[11] = read-out: Inhibition of NDM-1 (dash in Ki column)
[12] = read-out: Inhibition of VIM-2 (dash in Ki column)

Structure (SMILES): O=C(O)CCC(=O)Nn1c(-c2cccc(-c3ccccc3)c2)n[nH]c1=S [Compound 20]
- inhibition at 100 µM (IMP-1 [1]; [7]): < 20%
- inhibition at 100 µM (NDM-1 [2]; [8]): < 20%
- inhibition at 100 µM (VIM-2 [3]; [9]): < 20%

Structure (SMILES): O=C(O)c1ccccc1C=Nn1c(CCc2ccccc2)n[nH]c1=S [hydrazone-like analog of 8]
- Ki (VIM-2 [4]): 7000 nM
- Inhibition of IMP-1 (dash in Ki column), corresponding hydrazone-like compound (IMP-1 [5]): - (-) (<40% of inhibition in the presence of 100 μM inhibitor)
- Inhibition of NDM-1 (dash in Ki column), corresponding hydrazone-like compound (NDM-1 [6]): - (-) (<40% of inhibition in the presence of 100 μM inhibitor)

Structure (SMILES): O=C(O)c1ccccc1C(=O)Nn1c(Cc2ccccc2)n[nH]c1=S [Compound 18]
- inhibition at 100 µM (IMP-1 [1]; [7]): < 20%
- inhibition at 100 µM (NDM-1 [2]; [8]): < 20%
- inhibition at 100 µM (VIM-2 [3]; [9]): < 20%

Structure (SMILES): O=C(O)c1ccccc1CNn1c(CCc2ccccc2)n[nH]c1=S [Compound 8]
- inhibition at 100 µM (IMP-1 [1]; [10]): < 40%
- inhibition at 100 µM (NDM-1 [2]; [11]): < 40%
- inhibition at 100 µM (VIM-2 [3]; [12]): < 40%

Structure (SMILES): O=C(O)c1ccccc1C=Nn1c(-c2cccc(-c3ccccc3)c2)n[nH]c1=S [hydrazone-like analog of 3]
- Ki (VIM-2 [4]): 200 nM
- Ki (IMP-1 [5]): 18 µM
- Ki (NDM-1 [6]): 4200 nM

Structure (SMILES): O=C(O)c1ccc(CNn2c(CCc3ccccc3)n[nH]c2=S)cc1 [Compound 10]
- inhibition at 100 µM (IMP-1 [1]; [10]): < 40%
- inhibition at 100 µM (NDM-1 [2]; [11]): < 40%
- inhibition at 100 µM (VIM-2 [3]; [12]): < 40%

Structure (SMILES): O=C(O)c1ccc(C=Nn2c(CCc3ccccc3)n[nH]c2=S)cc1 [hydrazone-like analog of 10]
- Inhibition of VIM-2 (dash in Ki column), corresponding hydrazone-like compound (VIM-2 [4]; in parentheses, 100 μM inhibitor): - (-) (<40% of inhibition in the presence of 100 μM inhibitor)
- Ki (IMP-1 [5]): 11 µM
- Inhibition of NDM-1 (dash in Ki column), corresponding hydrazone-like compound (NDM-1 [6]): - (-) (<40% of inhibition in the presence of 100 μM inhibitor)

Structure (SMILES): O=C(O)c1ccccc1C=Nn1c(COc2ccc3ccccc3c2)n[nH]c1=S [hydrazone-like analog of 12]
- Ki (VIM-2 [4]): 2000 nM
- Inhibition of IMP-1 (dash in Ki column), corresponding hydrazone-like compound (IMP-1 [5]): - (-) (<40% of inhibition in the presence of 100 μM inhibitor)
- Ki (NDM-1 [6]): 2400 nM

Structure (SMILES): O=C(O)c1ccccc1C=Nn1c(Cc2ccc3ccccc3c2)n[nH]c1=S [hydrazone-like analog of 7]
- Ki (VIM-2 [4]): 2400 nM
- Ki (IMP-1 [5]): 34 µM
- Ki (NDM-1 [6]): 1600 nM

Structure (SMILES): O=[N+]([O-])c1ccccc1CNn1c(CCc2ccccc2)n[nH]c1=S [Compound 9]
- inhibition at 100 µM (IMP-1 [1]; [10]): < 40%
- inhibition at 100 µM (NDM-1 [2]; [11]): < 40%
- inhibition at 100 µM (VIM-2 [3]; [12]): < 40%

Structure (SMILES): O=C(O)c1ccccc1C=Nn1c(-c2cc3ccccc3[nH]2)n[nH]c1=S [hydrazone-like analog of 5]
- Ki (IMP-1 [1]; value in parentheses, analogs of compounds 5 and 6 (this work), read-out: Ki Value IMP-1, corresponding hydrazone-like compound): 55 µM
- Ki (NDM-1 [2]; value in parentheses, analogs of compounds 5 and 6 (this work), read-out: Ki Value NDM-1, corresponding hydrazone-like compound): 9.4 µM
- inhibition at 100 µM (VIM-2 [3]; read-out: Inhibition of VIM-2 (dash in Ki column), corresponding hydrazone-like compound): < 40%
